Measured values from patent US12187716B2, “TYK2 kinase inhibitors” (SAREUM LIMITED, priority 2018, dated 2025).

Columns and labels:
TYK2 = TYK2 (Homo sapiens, UniProt P29597); assay: TYK2 kinase inhibition assay (33P-ATP filter binding, Reaction Biology)
JAK1 = JAK1 (Homo sapiens, UniProt P23458); assay: JAK1 kinase inhibition assay (33P-ATP filter binding, Reaction Biology)
JAK3 = JAK3 (Homo sapiens, UniProt P52333); assay: JAK3 kinase inhibition assay (33P-ATP filter binding, Reaction Biology)
Chain of JAK3 (P52333 781-1124): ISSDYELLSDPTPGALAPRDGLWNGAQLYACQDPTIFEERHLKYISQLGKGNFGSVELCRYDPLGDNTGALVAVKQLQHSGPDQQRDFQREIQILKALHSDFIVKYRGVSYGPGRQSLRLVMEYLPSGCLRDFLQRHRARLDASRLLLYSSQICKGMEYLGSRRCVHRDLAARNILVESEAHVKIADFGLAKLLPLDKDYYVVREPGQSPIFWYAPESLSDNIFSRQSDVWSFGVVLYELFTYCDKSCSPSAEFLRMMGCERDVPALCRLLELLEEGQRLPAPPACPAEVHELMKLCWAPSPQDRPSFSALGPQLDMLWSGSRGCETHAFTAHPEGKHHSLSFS

pSTAT3 in HT29 cells = assay: pSTAT3 inhibition in response to IL-22 stimulation in serum starved HT29 cells; format: cell-based
Description: HT29 cells were serum starved overnight before the four test compounds were diluted to generate a 9-point semi-log dose dilution with a top concentration of 10 μM, plus vehicle control. HT29 cells were incubated with the test compounds for 20 min at 37° C. HT29 cells were incubated for a further 15 min with 10 ng/ml human IL-22 before cells were fixed with 4% PFA for 10 min, and 90% methanol for 30 min before being labelled with a phospho-STAT3Y705 antibody (CST #9145). Cells were rinsed three times using 0.5% BSA/PBS solution before being incubated with Alexa-488 anti-rabbit secondary antibodies.
Mean fluorescence intensity of phospho-STAT3 in single cells was analysed by flow cytometry using an Intellicyt iQue instrument and FlowJo software. The IC50 was determined using a four-parameter analysis following removal of background signal and normalisation to the DMSO control.

Chain of TYK2 (P29597 833-1187): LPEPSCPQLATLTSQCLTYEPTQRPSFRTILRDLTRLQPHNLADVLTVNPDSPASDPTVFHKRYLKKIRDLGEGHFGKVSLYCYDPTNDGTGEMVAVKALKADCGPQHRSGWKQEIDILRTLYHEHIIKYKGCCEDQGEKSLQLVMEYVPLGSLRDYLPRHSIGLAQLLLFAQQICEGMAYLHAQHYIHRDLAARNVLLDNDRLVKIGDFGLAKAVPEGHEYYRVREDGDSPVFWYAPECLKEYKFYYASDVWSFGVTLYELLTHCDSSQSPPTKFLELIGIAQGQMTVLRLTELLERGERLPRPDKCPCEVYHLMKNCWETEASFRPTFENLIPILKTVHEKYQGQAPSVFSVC
Chain of JAK1 (P23458 866-1154): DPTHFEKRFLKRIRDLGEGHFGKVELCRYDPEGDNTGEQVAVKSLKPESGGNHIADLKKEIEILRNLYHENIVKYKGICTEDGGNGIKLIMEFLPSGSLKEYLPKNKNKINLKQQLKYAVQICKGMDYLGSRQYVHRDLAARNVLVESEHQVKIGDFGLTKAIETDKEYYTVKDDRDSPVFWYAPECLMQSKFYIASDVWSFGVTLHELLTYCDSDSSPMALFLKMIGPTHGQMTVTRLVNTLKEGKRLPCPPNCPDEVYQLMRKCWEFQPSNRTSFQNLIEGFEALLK

IC50 (TYK2): 10 nM
IC50 (JAK1): 49 nM
IC50 (JAK3): 290 nM
IC50 (pSTAT3 in HT29 cells; Homo sapiens, HT-29, HT29 cells, 10 ng/ml human IL-22): 170 nM
SMILES: NC(=O)c1nc(-c2c(F)cccc2Cl)oc1Nc1ccc(C(=O)N2CCOCC2)cc1 [A, 2-(2-chloro-6-fluoro-phenyl)-5-[4-(morpholine-4-carbonyl)-phenylamino]-oxazole-4-carboxylic acid amide, reference compound]
inhibition at 10 µM (pSTAT3 in HT29 cells; HT-29, HT29 cells, 10 ng/ml human IL-22, 10 μM compound): 96.9%
